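Where inhibition never reached the appropriate level, the endpoint shown equals the highest concentration tested. Otherwise, values were interpolated linearly from a five-concentration, 48-hour dose response in 96-well plates. Abbreviation: GI50, concentration required for 50% inhibition of growth. Definition used: TGI = concentration required for complete inhibition of growth.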
How the values were obtained:
Test in all cases: NCI tumour cell line growth inhibition, 48 h
[1] = tested on: HOP-92 NSCLC
[2] = tested on: CCRF-CEM leukemia
[3] = tested on: HCC-2998 colon
[4] = tested on: SK-OV-3 ovarian
[5] = tested on: 786-0 renal
[6] = tested on: CAKI-1 renal
[7] = tested on: HS 578T breast
[8] = tested on: PC-3 prostate
[9] = tested on: SNB-75 CNS
[10] = tested on: MDA-MB-231 breast

COC(=O)C(C(=O)OC)C(Br)C(Br)C(Br)c1ccccc1 (stereo not given) was tested, and the GI50 [1] was 11.8 µM, the TGI [1] was 25.3 µM and the GI50 [2] was 2.08 µM. It also gave a TGI [2] of 5.79 µM, a GI50 [3] of 21 µM and a TGI [3] of 37.8 µM. For the same molecule, the GI50 [4] was 23.6 µM, the TGI [4] was 72.3 µM and the GI50 [5] was 11.9 µM. The TGI [5] was 25.3 µM, the GI50 [6] was 4.97 µM and the TGI [6] was 17.7 µM. It also gave a GI50 [7] of 18.4 µM, a TGI [7] of 62.8 µM and a GI50 [8] of 11.5 µM. It also gave a TGI [8] of 24.6 µM, a GI50 [9] of 12.5 µM and a TGI [9] of 25 µM. For the same molecule, the GI50 [10] was 13.2 µM and the TGI [10] was 26.8 µM.
COc1ccc(CCN2CCC(CN(C)Cc3cnn(-c4ccccc4)c3)CC2)cc1 was tested, and the GI50 [1] was 4.61 µM, the TGI [1] was 19.3 µM and the GI50 [2] was 21 µM. It also gave a TGI [2] of 78.6 µM, a GI50 [3] of 5.13 µM and a TGI [3] of 18.1 µM. It also gave a GI50 [4] of 16.2 µM, a TGI [4] of 39.9 µM and a GI50 [5] of 12 µM. The TGI [5] was 24.6 µM, the GI50 [6] was 5.42 µM and the TGI [6] was 19.9 µM. The GI50 [7] was 13.5 µM, the TGI [7] was 32.6 µM and the GI50 [8] was 25.1 µM. It also gave a TGI [8] greater than 100 µM, a GI50 [9] of 8.83 µM and a TGI [9] of 21.2 µM. The GI50 [10] was 3.58 µM and the TGI [10] was 20.1 µM.
O=C1N(Cc2ccccc2Cl)c2ccccc2C12NN=C(c1cccc(Cl)c1)S2 (stereo not given) gave a GI50 [1] of 1.74 µM, a TGI [1] of 3.17 µM and a GI50 [2] of 1.86 µM. It also gave a TGI [2] of 4.93 µM, a GI50 [3] of 1.78 µM and a TGI [3] of 3.24 µM. The GI50 [4] was 1.69 µM, the TGI [4] was 3.05 µM and the GI50 [5] was 1.72 µM. The TGI [5] was 3.12 µM, the GI50 [6] was 1.69 µM and the TGI [6] was 3.07 µM. For the same molecule, the GI50 [7] was 2.4 µM, the TGI [7] was 5.85 µM and the GI50 [8] was 1.74 µM. The TGI [8] was 3.45 µM, the GI50 [9] was 1.47 µM and the TGI [9] was 2.84 µM. It also gave a GI50 [10] of 2.02 µM and a TGI [10] of 4.2 µM.
Cc1ccc(C2NC(=O)c3ccccc3N2)c(C)c1 (stereo not given) gave a TGI [1] greater than 95.7 µM, a TGI [2] greater than 100 µM and a TGI [3] greater than 61.1 µM. For the same molecule, the TGI [4] was greater than 100 µM, the TGI [5] was 97.5 µM and the TGI [6] was 18.6 µM. It also gave a TGI [7] of 6.78 µM, a TGI [8] greater than 40.2 µM and a TGI [9] of 6.8 µM. It also gave a TGI [10] greater than 100 µM.
Work on CC(C)(C)OC(=O)NCc1cccc(N=C=S)c1 yielded a GI50 [1] of 14.6 µM, a TGI [1] of 62.2 µM and a GI50 [2] of 21 µM. It also gave a TGI [2] of 55.9 µM, a GI50 [3] of 16.3 µM and a TGI [3] of 30.9 µM. The GI50 [4] was 35.5 µM, the TGI [4] was greater than 84.9 µM and the GI50 [5] was 21.6 µM. The TGI [5] was 44.1 µM, the GI50 [6] was 20.5 µM and the TGI [6] was 53.9 µM. It also gave a GI50 [7] of 24.6 µM, a TGI [7] greater than 84.8 µM and a GI50 [8] of 21.5 µM. For the same molecule, the TGI [8] was 51.8 µM, the GI50 [9] was 14.1 µM and the TGI [9] was greater than 59.6 µM. The GI50 [10] was 25.7 µM and the TGI [10] was greater than 85.7 µM.
CC1SC2(CCCCC2)N(NC(=O)c2[nH]c3ccc(Br)cc3c2-c2ccccc2)C1=O (stereo not given) was tested, and the GI50 [1] was 14.6 µM, the TGI [1] was 64.8 µM and the GI50 [2] was 7 µM. The TGI [2] was greater than 100 µM, the GI50 [3] was greater than 100 µM and the TGI [3] was greater than 100 µM. For the same molecule, the GI50 [4] was greater than 100 µM, the TGI [4] was greater than 100 µM and the GI50 [5] was 17.5 µM. For the same molecule, the TGI [5] was 98.4 µM, the GI50 [6] was 62.5 µM and the TGI [6] was greater than 100 µM. For the same molecule, the GI50 [7] was 70.7 µM, the TGI [7] was greater than 100 µM and the GI50 [8] was 7.45 µM. It also gave a TGI [8] of 89.2 µM, a GI50 [9] of 22.6 µM and a TGI [9] of 90 µM. The GI50 [10] was 20.4 µM and the TGI [10] was 79.6 µM.
Work on CC1(C)O[C@@H]2C[C@H]3[C@@H]4C[C@H](F)C5=CC(=O)C=C[C@]5(C)[C@@]4(F)[C@@H](O)C[C@]3(C)[C@]2(C(=O)CO)O1 yielded a TGI [1] greater than 100 µM, a TGI [2] greater than 100 µM and a TGI [3] greater than 100 µM. The TGI [4] was greater than 100 µM, the TGI [5] was greater than 100 µM and the TGI [6] was greater than 100 µM. The TGI [7] was greater than 100 µM, the TGI [8] was greater than 100 µM and the TGI [9] was greater than 100 µM. It also gave a TGI [10] greater than 100 µM.
Molecule CCC(C)C(=O)OCC(=O)c1ccc(-c2ccccc2)cc1 (stereo not given) has a TGI [1] greater than 100 µM, a TGI [2] greater than 100 µM and a TGI [3] greater than 100 µM. The TGI [4] was greater than 100 µM, the TGI [5] was greater than 100 µM and the TGI [6] was greater than 100 µM. It also gave a TGI [7] greater than 100 µM, a TGI [8] greater than 100 µM and a TGI [9] greater than 100 µM. It also gave a TGI [10] greater than 100 µM.
For NC(=O)c1sc(-n2cnc3cc(C(F)(F)F)ccc32)cc1OCc1ccccc1Br, the GI50 [1] was 8.02 µM, the TGI [1] was greater than 25 µM and the GI50 [2] was greater than 19.2 µM. It also gave a TGI [2] greater than 25 µM, a GI50 [3] greater than 25 µM and a TGI [3] greater than 25 µM. For the same molecule, the GI50 [4] was 9.07 µM, the TGI [4] was greater than 25 µM and the GI50 [5] was 18.4 µM. For the same molecule, the TGI [5] was greater than 25 µM, the GI50 [6] was greater than 25 µM and the TGI [6] was greater than 25 µM. It also gave a GI50 [7] of 12.4 µM, a TGI [7] greater than 25 µM and a GI50 [8] greater than 20.4 µM. For the same molecule, the TGI [8] was greater than 25 µM, the GI50 [9] was 8.72 µM and the TGI [9] was greater than 18.8 µM. The GI50 [10] was greater than 17.6 µM and the TGI [10] was greater than 25 µM.
In the case of C/C(=N\NC(=S)N1CCCCCC1)c1cccc2cccnc12, the TGI [1] is reported as greater than 100 µM, the TGI [2] is reported as greater than 100 µM and the TGI [3] is reported as greater than 100 µM. The TGI [4] was greater than 81.5 µM, the TGI [5] was greater than 86.9 µM and the TGI [6] was 2.42 µM. The TGI [7] was greater than 100 µM, the TGI [8] was greater than 100 µM and the TGI [9] was greater than 91.6 µM. It also gave a TGI [10] greater than 79 µM.
